Experimental data: PubChem BioAssay AID1963827 (Molecular Pharmacology Branch, DTP, NCI, 2024)

System: 994946-033-R-J1-PDC complex spheroid viability
Assay: Anticancer human tumor 994946-033-R-J1-PDC patient-derived melanoma cell line growth inhibition [POLQ]
Settings: for IC50: curve of first compound; for viability, T/C: stronger effect = lower value
Outline: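 Patient-derived tumour cells were co-cultured with HUVEC and mesenchymal stem cells as multicellular spheroids at 37 °C. They were treated with POLQ inhibitors (novobiocin, ART-558, RP6685) alone or combined with other agents. Top concentrations were at or near clinical Cmax (otherwise 10 microM; SN-38 at 1 microM), decreasing in half-log steps.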

[1] = second compound 0.0316 µM, first compound 0.00316 µM
[2] = second compound 0.0316 µM, first compound 0.01 µM
[3] = second compound 0.0316 µM, first compound 0.0316 µM
[4] = second compound 0.0316 µM, first compound 0.1 µM
[5] = second compound 0.0316 µM, first compound 0.316 µM
[6] = second compound 0.0316 µM, first compound 1 µM
[7] = second compound 0.1 µM, first compound 0.00316 µM
[8] = second compound 0.1 µM, first compound 0.01 µM
[9] = second compound 0.1 µM, first compound 0.0316 µM
[10] = second compound 0.1 µM, first compound 0.1 µM
[11] = second compound 0.1 µM, first compound 0.316 µM
[12] = second compound 0.1 µM, first compound 1 µM
[13] = second compound 0.316 µM, first compound 0.00316 µM
[14] = second compound 0.316 µM, first compound 0.01 µM
[15] = second compound 0.316 µM, first compound 0.0316 µM
[16] = second compound 0.316 µM, first compound 0.1 µM
[17] = second compound 0.316 µM, first compound 0.316 µM
[18] = second compound 0.316 µM, first compound 1 µM
[19] = second compound 1 µM, first compound 0.00316 µM
[20] = second compound 1 µM, first compound 0.01 µM
[21] = second compound 1 µM, first compound 0.0316 µM
[22] = second compound 1 µM, first compound 0.1 µM
[23] = second compound 1 µM, first compound 0.316 µM
[24] = second compound 1 µM, first compound 1 µM
[25] = second compound 3.16 µM, first compound 0.00316 µM
[26] = second compound 3.16 µM, first compound 0.01 µM
[27] = second compound 3.16 µM, first compound 0.0316 µM
[28] = second compound 3.16 µM, first compound 0.1 µM
[29] = second compound 3.16 µM, first compound 0.316 µM
[30] = second compound 3.16 µM, first compound 1 µM
[31] = second compound 10 µM, first compound 0.00316 µM
[32] = second compound 10 µM, first compound 0.01 µM
[33] = second compound 10 µM, first compound 0.0316 µM
[34] = second compound 10 µM, first compound 0.1 µM
[35] = second compound 10 µM, first compound 0.316 µM
[36] = second compound 10 µM, first compound 1 µM
[37] = second compound 0.0316 µM, first compound 3.16 µM
[38] = second compound 0.0316 µM, first compound 10 µM
[39] = second compound 0.1 µM, first compound 3.16 µM
[40] = second compound 0.1 µM, first compound 10 µM
[41] = second compound 0.316 µM, first compound 3.16 µM
[42] = second compound 0.316 µM, first compound 10 µM
[43] = second compound 1 µM, first compound 3.16 µM
[44] = second compound 1 µM, first compound 10 µM
[45] = second compound 3.16 µM, first compound 3.16 µM
[46] = second compound 3.16 µM, first compound 10 µM
[47] = second compound 10 µM, first compound 3.16 µM
[48] = second compound 10 µM, first compound 10 µM
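Further: spheroids exposed to drugs for 7 days.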
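Wherever viability, T/C is given: 100% = DMSO vehicle treated spheroids.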

For C=CCn1c(=O)c2cnc(Nc3ccc(N4CCN(C)CC4)cc3)nc2n1-c1cccc(C(C)(C)O)n1 + Cc1cccc(N(C)C(=O)C2C(O)CCN2c2nc(C)cc(C(F)(F)F)c2C#N)c1, the IC50 (second compound 0.0316 µM) was 625 nM, the IC50 (second compound 0.1 µM) was > 1000 nM and the IC50 (second compound 0.316 µM) was 489 nM. The IC50 (second compound 1 µM) was 765 nM, the IC50 (second compound 3.16 µM) was 871 nM and the IC50 (second compound 10 µM) was 915 nM. The viability, T/C [1] was 94.9%, the viability, T/C [2] was 95.3% and the viability, T/C [3] was 132%. The viability, T/C [4] was 108%, the viability, T/C [5] was 73.3% and the viability, T/C [6] was 33.9%. For the same compound, the viability, T/C [7] was 66.7%, the viability, T/C [8] was 93.5% and the viability, T/C [9] was 103%. It also gave a viability, T/C [10] of 115%, a viability, T/C [11] of 73.5% and a viability, T/C [12] of 52.4%. For the same compound, the viability, T/C [13] was 80.4%, the viability, T/C [14] was 112% and the viability, T/C [15] was 83.5%. It also gave a viability, T/C [16] of 102%, a viability, T/C [17] of 60% and a viability, T/C [18] of 33.5%. For the same compound, the viability, T/C [19] was 111%, the viability, T/C [20] was 95.1% and the viability, T/C [21] was 117%. For the same compound, the viability, T/C [22] was 113%, the viability, T/C [23] was 84.3% and the viability, T/C [24] was 39.6%. The viability, T/C [25] was 116%, the viability, T/C [26] was 118% and the viability, T/C [27] was 111%. It also gave a viability, T/C [28] of 108%, a viability, T/C [29] of 111% and a viability, T/C [30] of 41.7%. The viability, T/C [31] was 123%, the viability, T/C [32] was 73.9% and the viability, T/C [33] was 81.3%. For the same compound, the viability, T/C [34] was 121%, the viability, T/C [35] was 80.5% and the viability, T/C [36] was 47.4%.

In the case of CCc1c2c(nc3ccc(O)cc13)-c1cc3c(c(=O)n1C2)COC(=O)[C@]3(O)CC + Cc1cccc(N(C)C(=O)C2C(O)CCN2c2nc(C)cc(C(F)(F)F)c2C#N)c1, the IC50 (second compound 0.0316 µM) is reported as < 3.16 nM, the IC50 (second compound 0.1 µM) is reported as < 3.16 nM and the IC50 (second compound 0.316 µM) is reported as < 3.16 nM. The IC50 (second compound 1 µM) was < 3.16 nM, the IC50 (second compound 3.16 µM) was < 3.16 nM and the IC50 (second compound 10 µM) was < 3.16 nM. The viability, T/C [1] was 17.5%, the viability, T/C [2] was 10.9% and the viability, T/C [3] was 5%. The viability, T/C [4] was 5.25%, the viability, T/C [5] was 2.7% and the viability, T/C [6] was 1.11%. For the same compound, the viability, T/C [7] was 18.9%, the viability, T/C [8] was 10% and the viability, T/C [9] was 7.4%. It also gave a viability, T/C [10] of 5.26%, a viability, T/C [11] of 3.12% and a viability, T/C [12] of 0.8%. For the same compound, the viability, T/C [13] was 18.6%, the viability, T/C [14] was 8.02% and the viability, T/C [15] was 5.77%. For the same compound, the viability, T/C [16] was 4.13%, the viability, T/C [17] was 4.1% and the viability, T/C [18] was 1.27%. It also gave a viability, T/C [19] of 18.7%, a viability, T/C [20] of 8.88% and a viability, T/C [21] of 5.58%. It also gave a viability, T/C [22] of 7.75%, a viability, T/C [23] of 3.43% and a viability, T/C [24] of 1.3%. For the same compound, the viability, T/C [25] was 26.8%, the viability, T/C [26] was 12% and the viability, T/C [27] was 8.11%. For the same compound, the viability, T/C [28] was 5.61%, the viability, T/C [29] was 2.9% and the viability, T/C [30] was 0.8%. For the same compound, the viability, T/C [31] was 17.9%, the viability, T/C [32] was 9.1% and the viability, T/C [33] was 5.89%. It also gave a viability, T/C [34] of 4%, a viability, T/C [35] of 2.6% and a viability, T/C [36] of 0.66%.

CNCc1ccc(-c2[nH]c3cc(F)cc4c3c2CCNC4=O)cc1 + Cc1cccc(N(C)C(=O)C2C(O)CCN2c2nc(C)cc(C(F)(F)F)c2C#N)c1 was tested, and the IC50 (second compound 0.0316 µM) was > 10000 nM, the IC50 (second compound 0.1 µM) was > 10000 nM and the IC50 (second compound 0.316 µM) was > 10000 nM. For the same compound, the IC50 (second compound 1 µM) was > 10000 nM, the IC50 (second compound 3.16 µM) was > 10000 nM and the IC50 (second compound 10 µM) was > 10000 nM. For the same compound, the viability, T/C [3] was 88.4%, the viability, T/C [4] was 103% and the viability, T/C [5] was 132%. The viability, T/C [6] was 77.5%, the viability, T/C [37] was 94.8% and the viability, T/C [38] was 78.8%. For the same compound, the viability, T/C [9] was 85.5%, the viability, T/C [10] was 117% and the viability, T/C [11] was 102%. It also gave a viability, T/C [12] of 81.4%, a viability, T/C [39] of 92% and a viability, T/C [40] of 92.7%. For the same compound, the viability, T/C [15] was 113%, the viability, T/C [16] was 115% and the viability, T/C [17] was 90.9%. For the same compound, the viability, T/C [18] was 78.8%, the viability, T/C [41] was 92.8% and the viability, T/C [42] was 106%. The viability, T/C [21] was 105%, the viability, T/C [22] was 101% and the viability, T/C [23] was 89.9%. It also gave a viability, T/C [24] of 73.1%, a viability, T/C [43] of 112% and a viability, T/C [44] of 104%. The viability, T/C [27] was 107%, the viability, T/C [28] was 90.5% and the viability, T/C [29] was 109%. The viability, T/C [30] was 100%, the viability, T/C [45] was 109% and the viability, T/C [46] was 89.4%. It also gave a viability, T/C [33] of 103%, a viability, T/C [34] of 79% and a viability, T/C [35] of 118%. For the same compound, the viability, T/C [36] was 91.2%, the viability, T/C [47] was 86.8% and the viability, T/C [48] was 83.2%.

Compound O=C(c1cc(Cc2n[nH]c(=O)c3ccccc23)ccc1F)N1CCN(C(=O)C2CC2)CC1 + Cc1cccc(N(C)C(=O)C2C(O)CCN2c2nc(C)cc(C(F)(F)F)c2C#N)c1 has an IC50 (second compound 0.0316 µM) of 6120 nM, an IC50 (second compound 0.1 µM) of 4160 nM and an IC50 (second compound 0.316 µM) of 8940 nM. For the same compound, the IC50 (second compound 1 µM) was 6770 nM, the IC50 (second compound 3.16 µM) was 4890 nM and the IC50 (second compound 10 µM) was > 10000 nM. It also gave a viability, T/C [3] of 103%, a viability, T/C [4] of 92.8% and a viability, T/C [5] of 82.3%. For the same compound, the viability, T/C [6] was 94.2%, the viability, T/C [37] was 80.2% and the viability, T/C [38] was 27.3%. The viability, T/C [9] was 100%, the viability, T/C [10] was 105% and the viability, T/C [11] was 89.9%. It also gave a viability, T/C [12] of 69.6%, a viability, T/C [39] of 57.9% and a viability, T/C [40] of 35.9%. The viability, T/C [15] was 106%, the viability, T/C [16] was 95.3% and the viability, T/C [17] was 82.5%. For the same compound, the viability, T/C [18] was 86.8%, the viability, T/C [41] was 92% and the viability, T/C [42] was 45.5%. It also gave a viability, T/C [21] of 79.7%, a viability, T/C [22] of 102% and a viability, T/C [23] of 81.7%. It also gave a viability, T/C [24] of 84.3%, a viability, T/C [43] of 75.6% and a viability, T/C [44] of 37%. The viability, T/C [27] was 105%, the viability, T/C [28] was 97.6% and the viability, T/C [29] was 79.5%. For the same compound, the viability, T/C [30] was 88.3%, the viability, T/C [45] was 56.8% and the viability, T/C [46] was 33.3%. It also gave a viability, T/C [33] of 110%, a viability, T/C [34] of 93.4% and a viability, T/C [35] of 83.3%. It also gave a viability, T/C [36] of 78%, a viability, T/C [47] of 77.5% and a viability, T/C [48] of 56.1%.
